Source: patent US20050123616A1, “Azithromycin multiparticulate dosage forms by liquid-based processes” (Pfizer Inc, priority 2003, published 2005)

Assays:
[1] = amount of azithromycin dihydrate dissolved in coating solution, indicated by pH; type: physicochemical; details: aqueous hydroxypropyl cellulose coating solution, pH 9
Description: Multiparticulates were made by a spray-coating process using the following procedure. First, 30 g of the low reactivity carrier hydroxypropyl cellulose containing virtually no acid or ester substituents (KLUCEL EF from Aqualon, Inc. of Wilmington, Del.) were dissolved into 800 g of distilled water. To this solution was then added 119.6 g of crystalline azithromycin dihydrate having a degree of crystallinity of >99%.

[2] = distilled water at pH 6.9; cited from earlier work

- amount of azithromycin dihydrate dissolved in the solution [1]: less than 1 mg/mL
SMILES: CC[C@H]1OC(=O)[C@H](C)[C@@H](O[C@H]2C[C@@](C)(OC)[C@@H](O)[C@H](C)O2)[C@H](C)[C@@H](O[C@@H]2O[C@H](C)C[C@H](N(C)C)[C@H]2O)[C@](C)(O)C[C@@H](C)CN(C)[C@H](C)[C@@H](O)[C@]1(C)O [azithromycin dihydrate, 9a-aza-9a-methyl-9-deoxo-9a-homoerythromycin A]
- solubility [2]: 1100 µg/mL
